Columns and labels:
[1] = molecular target: Mitogen-activated protein kinase 3 (Homo sapiens, UniProt P27361); assay: DRUGMATRIX: Protein Serine/Threonine Kinase, ERK1 enzyme inhibition (substrate: Myelin Basic Protein); design: species or system Escherichia coli; details: Not Active = under 50% inhibition at 10 µM
[2] = molecular target: Estrogen receptor beta (Homo sapiens, UniProt Q92731); details: sf9; also: in other assays of this panel Not Active means under 50% inhibition at 10 µM
[3] = molecular target: Melanocortin receptor 4 (Homo sapiens, UniProt P32245); type: cell membranes, Membrane; details: hek293; also: in other assays of this panel Not Active means under 50% inhibition at 10 µM
Melanocortin receptor 4, sequence (P32245 whole entry): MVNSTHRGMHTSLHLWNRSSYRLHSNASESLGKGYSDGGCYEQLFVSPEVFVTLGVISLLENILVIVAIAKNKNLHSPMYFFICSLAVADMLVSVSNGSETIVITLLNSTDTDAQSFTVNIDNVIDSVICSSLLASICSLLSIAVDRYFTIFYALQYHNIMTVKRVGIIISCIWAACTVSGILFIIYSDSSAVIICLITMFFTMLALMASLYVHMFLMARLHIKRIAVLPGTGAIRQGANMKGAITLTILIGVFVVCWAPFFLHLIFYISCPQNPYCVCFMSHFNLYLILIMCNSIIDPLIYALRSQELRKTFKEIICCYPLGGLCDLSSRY

[4] = molecular target: Cannabinoid receptor 1 (Homo sapiens, UniProt P21554); type: cell membranes, Chem-1, Membrane; details: chem-1; also: in other assays of this panel Not Active means under 50% inhibition at 10 µM
Cannabinoid receptor 1, sequence (P21554 whole entry): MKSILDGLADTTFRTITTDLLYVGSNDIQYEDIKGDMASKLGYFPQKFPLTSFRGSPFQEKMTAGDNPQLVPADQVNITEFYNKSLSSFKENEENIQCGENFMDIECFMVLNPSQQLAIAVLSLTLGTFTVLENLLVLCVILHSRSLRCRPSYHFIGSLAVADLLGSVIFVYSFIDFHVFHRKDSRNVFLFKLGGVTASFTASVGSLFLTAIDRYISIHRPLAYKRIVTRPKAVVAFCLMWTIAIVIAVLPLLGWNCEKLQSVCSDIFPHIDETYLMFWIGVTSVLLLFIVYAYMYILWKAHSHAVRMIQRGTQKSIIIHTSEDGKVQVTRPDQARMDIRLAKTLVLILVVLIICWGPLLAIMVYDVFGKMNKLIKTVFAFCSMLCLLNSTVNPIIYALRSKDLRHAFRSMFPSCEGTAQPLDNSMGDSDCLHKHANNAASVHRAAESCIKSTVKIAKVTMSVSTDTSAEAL

[5] = molecular target: T1, C-X-C chemokine receptor type 2 (Homo sapiens, UniProt P25025); type: cell membranes, Membrane; details: cho-k1; also: in other assays of this panel Not Active means under 50% inhibition at 10 µM
T1 sequence (P25025 whole entry): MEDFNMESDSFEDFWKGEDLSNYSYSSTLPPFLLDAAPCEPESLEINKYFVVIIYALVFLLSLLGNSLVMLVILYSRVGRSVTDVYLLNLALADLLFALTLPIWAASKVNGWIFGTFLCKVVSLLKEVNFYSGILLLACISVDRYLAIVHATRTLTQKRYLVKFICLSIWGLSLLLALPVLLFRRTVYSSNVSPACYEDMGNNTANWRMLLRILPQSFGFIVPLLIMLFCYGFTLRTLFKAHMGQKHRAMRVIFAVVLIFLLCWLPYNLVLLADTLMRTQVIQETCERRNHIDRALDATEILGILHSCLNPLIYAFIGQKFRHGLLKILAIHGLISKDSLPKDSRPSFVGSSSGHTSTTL

[6] = DRUGMATRIX: Phorbol Ester radioligand binding (ligand: [3H] PDBu); type: cell membranes, Mus musculus, ICR, Brain, Membrane; details: Not Active = under 50% inhibition at 10 µM
[7] = molecular target: T2, Glucocorticoid receptor (Homo sapiens, UniProt P04150); details: hela s3; also: in other assays of this panel Not Active means under 50% inhibition at 10 µM
T2 sequence (P04150 whole entry): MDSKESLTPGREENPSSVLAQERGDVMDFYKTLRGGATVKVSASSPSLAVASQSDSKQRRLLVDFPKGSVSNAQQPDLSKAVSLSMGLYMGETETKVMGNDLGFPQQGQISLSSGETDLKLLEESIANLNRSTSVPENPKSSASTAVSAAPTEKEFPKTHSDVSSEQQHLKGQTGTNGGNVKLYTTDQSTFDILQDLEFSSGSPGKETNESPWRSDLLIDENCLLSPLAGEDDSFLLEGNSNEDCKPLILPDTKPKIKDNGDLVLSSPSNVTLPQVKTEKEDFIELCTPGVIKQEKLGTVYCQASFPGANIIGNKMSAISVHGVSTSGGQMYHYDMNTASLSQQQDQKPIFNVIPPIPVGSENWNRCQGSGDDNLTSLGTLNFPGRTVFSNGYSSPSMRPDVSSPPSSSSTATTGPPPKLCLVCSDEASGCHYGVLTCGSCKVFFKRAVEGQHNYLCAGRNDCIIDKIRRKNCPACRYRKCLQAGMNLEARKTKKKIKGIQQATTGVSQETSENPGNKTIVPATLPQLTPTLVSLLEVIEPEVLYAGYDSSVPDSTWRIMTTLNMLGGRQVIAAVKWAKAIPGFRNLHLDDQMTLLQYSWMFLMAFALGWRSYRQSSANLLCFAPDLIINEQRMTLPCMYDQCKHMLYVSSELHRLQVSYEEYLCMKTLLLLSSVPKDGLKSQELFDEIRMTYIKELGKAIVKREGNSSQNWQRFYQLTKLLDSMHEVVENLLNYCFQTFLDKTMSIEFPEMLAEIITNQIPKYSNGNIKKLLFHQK

Estrogen receptor beta, sequence (Q92731 whole entry): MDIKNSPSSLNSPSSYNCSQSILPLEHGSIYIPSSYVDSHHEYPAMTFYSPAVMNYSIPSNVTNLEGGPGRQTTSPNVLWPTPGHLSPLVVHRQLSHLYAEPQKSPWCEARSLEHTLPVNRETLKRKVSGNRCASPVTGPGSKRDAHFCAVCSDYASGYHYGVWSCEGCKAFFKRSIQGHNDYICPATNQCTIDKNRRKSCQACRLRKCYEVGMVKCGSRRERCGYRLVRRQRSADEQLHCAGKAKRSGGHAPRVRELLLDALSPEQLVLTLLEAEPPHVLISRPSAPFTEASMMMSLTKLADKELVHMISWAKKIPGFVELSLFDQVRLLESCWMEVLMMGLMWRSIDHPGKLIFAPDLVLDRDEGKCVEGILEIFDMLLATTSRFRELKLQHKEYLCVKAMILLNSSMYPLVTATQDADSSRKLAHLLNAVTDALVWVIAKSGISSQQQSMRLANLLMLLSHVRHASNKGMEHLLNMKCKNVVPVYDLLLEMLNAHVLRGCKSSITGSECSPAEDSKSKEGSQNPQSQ
Mitogen-activated protein kinase 3, sequence (P27361 whole entry): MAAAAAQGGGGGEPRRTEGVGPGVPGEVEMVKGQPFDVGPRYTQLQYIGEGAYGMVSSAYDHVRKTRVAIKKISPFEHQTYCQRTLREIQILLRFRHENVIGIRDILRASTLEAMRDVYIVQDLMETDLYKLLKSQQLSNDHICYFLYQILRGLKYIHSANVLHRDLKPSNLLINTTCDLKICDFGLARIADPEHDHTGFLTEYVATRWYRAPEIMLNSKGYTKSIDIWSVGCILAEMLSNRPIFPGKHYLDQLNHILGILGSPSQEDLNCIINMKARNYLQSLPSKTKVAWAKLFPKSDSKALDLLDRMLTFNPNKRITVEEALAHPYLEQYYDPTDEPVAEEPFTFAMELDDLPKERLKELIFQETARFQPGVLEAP

## Cc1cccc(C)c1NC(=O)C1CCCCN1C (stereo unspecified) [MEPIVACAINE]
[1]
  IC50: Not Active
[2]
  IC50: Not Active
[3]
  IC50: Not Active
[4]
  IC50: Not Active
[5]
  IC50: Not Active
[6]
  IC50: Not Active
  Ki: Not Active
[7]
  IC50: Not Active

## CC1=NN(c2ccccc2)C(=O)C1 [EDARAVONE]
[1]
  IC50: Not Active
[2]
  IC50: Not Active
[3]
  IC50: Not Active
[4]
  IC50: Not Active
[5]
  IC50: Not Active
[6]
  IC50: Not Active
  Ki: Not Active
[7]
  IC50: Not Active

## CC(C)C[C@H]1C(=O)N2CCC[C@H]2[C@]2(O)O[C@](NC(=O)[C@@H]3C=C4c5cccc6[nH]cc(c56)C[C@H]4N(C)C3)(C(C)C)C(=O)N12 [ERGOCRYPTINE]
[1]
  IC50: Not Active
[2]
  IC50: Not Active
[3]
  IC50: Not Active
[4]
  IC50: Not Active
[5]
  IC50: Not Active
[6]
  IC50: Not Active
  Ki: Not Active
[7]
  IC50: Not Active

## Cc1cc(O)cc(C)c1Cl [CHLOROXYLENOL]
[1]
  IC50: Not Active
[2]
  IC50: Not Active
[3]
  IC50: Not Active
[4]
  IC50: Not Active
[5]
  IC50: Not Active
[6]
  IC50: Not Active
  Ki: Not Active
[7]
  IC50: Not Active

## COBALTOUS CHLORIDE
[1]
  IC50: Not Active
  Ki: Not Active
[2]
  IC50: Not Active
  Ki: Not Active
[3]
  IC50: Not Active
  Ki: Not Active
[4]
  IC50: Not Active
  Ki: Not Active
[5]
  IC50: Not Active
  Ki: Not Active
[6]
  IC50: Not Active
  Ki: Not Active
[7]
  IC50: Not Active
  Ki: Not Active

## COLISTIN
[1]
  IC50: Not Active
  Ki: Not Active
[2]
  IC50: Not Active
  Ki: Not Active
[3]; read-out: IC50
  IC50: 841 nM
[3]; read-out: Ki
  Ki: 809 nM
[4]
  IC50: Not Active
  Ki: Not Active
[5]
  IC50: Not Active
  Ki: Not Active
[6]
  IC50: Not Active
  Ki: Not Active
[7]
  IC50: Not Active
  Ki: Not Active

## C[C@@H]1C/C=C/C=C/C=C/C=C/[C@H](O[C@@H]2O[C@H](C)[C@@H](O)[C@H](N)[C@@H]2O)C[C@@H]2O[C@](O)(C[C@@H](O)C[C@H]3O[C@@H]3/C=C/C(=O)O1)C[C@H](O)[C@H]2C(=O)O [NATAMYCIN]
[1]
  IC50: Not Active
[2]
  IC50: Not Active
[3]
  IC50: Not Active
[4]
  IC50: Not Active
[5]
  IC50: Not Active
[6]
  IC50: Not Active
  Ki: Not Active
[7]
  IC50: Not Active

## CN(C)CCC=C1c2ccccc2CCc2ccccc21 [AMITRIPTYLINE]
[1]
  IC50: Not Active
[2]
  IC50: Not Active
[3]
  IC50: Not Active
[4]
  IC50: Not Active
[5]
  IC50: Not Active
[6]
  IC50: Not Active
  Ki: Not Active
[7]
  IC50: Not Active

## C[C@]12CC[C@H]3[C@@H](CCC4=CC(=O)CC[C@@H]43)[C@@H]1CC[C@@H]2O [NANDROLONE]
[1]
  IC50: Not Active
[2]
  IC50: Not Active
[3]
  IC50: Not Active
[4]
  IC50: Not Active
[5]
  IC50: Not Active
[6]
  IC50: Not Active
  Ki: Not Active
[7]
  IC50: Not Active

## CCOc1nc2cccc(C(=O)O)c2n1Cc1ccc(-c2ccccc2-c2nnn[nH]2)cc1
[1]
  IC50: Not Active
[2]
  IC50: Not Active
[3]
  IC50: Not Active
[4]
  IC50: Not Active
[5]
  IC50: Not Active
[6]
  IC50: Not Active
  Ki: Not Active
[7]
  IC50: Not Active

## COc1cccc2c1C(=O)c1c(O)c3c(c(O)c1C2=O)C[C@@](O)(C(C)=O)C[C@@H]3O[C@H]1C[C@H](N)[C@H](O)[C@H](C)O1 [DAUNORUBICIN]
[1]
  IC50: Not Active
[2]
  IC50: Not Active
[3]
  IC50: Not Active
[4]
  IC50: Not Active
[5]
  IC50: Not Active
[6]
  IC50: Not Active
  Ki: Not Active
[7]
  IC50: Not Active

## CC(=O)Oc1ccccc1C(=O)O [ASPIRIN]
[1]
  IC50: Not Active
[2]
  IC50: Not Active
[3]
  IC50: Not Active
[4]
  IC50: Not Active
[5]
  IC50: Not Active
[6]
  IC50: Not Active
  Ki: Not Active
[7]
  IC50: Not Active

## O=c1[nH]c(=O)n([C@H]2C[C@H](O)[C@@H](CO)O2)cc1F [FLOXURIDINE]
[1]
  IC50: Not Active
[2]
  IC50: Not Active
[3]
  IC50: Not Active
[4]
  IC50: Not Active
[5]
  IC50: Not Active
[6]
  IC50: Not Active
  Ki: Not Active
[7]
  IC50: Not Active

Reference: ChEMBL document CHEMBL1909046, “DrugMatrix in vitro pharmacology data”
